Patent US10280174B2, “Salt of fused pyrimidine compound and crystal thereof” (TAIHO PHARMACEUTICAL CO., LTD., priority 2015, dated 2019)

What was measured:
[1] = Solid stability test (severe test), 60° C.; assay type: physicochemical; details: 60° C. (Sealed)
Description: (§1) Solid stability was measured under the following conditions, with respect to monofumarate of Compound A, hemitartrate of Compound A and monophosphate of Compound A which were obtained in the Examples and the Reference Examples, when they were stored for 2 weeks or 4 weeks at 60° C.
Storage condition: 60° C. (Sealed)
Point of measurement: 2 weeks and 4 weeks
(§2) Storage amount: About 30 mg
(§3) Storage container: Brown glass container
(§4) Method of preparing sample solution: Sample was dissolved in 50% acetonitrile such that a concentration of the sample would be 0.4 mg/mL.
In the Table, A and B refer to percentages of the total mass of analogous substance of less than 0.1%, and 0.1% or more and less than 0.5%, respectively. Incidentally, the value marked with * was measured at 2 weeks and the others were measured at 4 weeks.

[2] = Moisture absorption/desorption test; assay type: physicochemical; details: for characteristic of channel hydrate: absorb/desorb moisture depending on humidity; for weight change at a maximum: humidified at a relative humidity of from 5 to 95%; for Weight change ratio, Adsorption / Weight change ratio, Desorption: 25° C.
Description: Moisture absorption/desorption test was carried out with respect to Compound A, monofumarate of Compound A, hemifumarate of Compound A, hemitartrate of Compound A and monophosphate of Compound A, to research the presence or absence of the characteristic of channel hydrate.
In the moisture absorption/desorption test, measurements were carried out according to the following conditions.
A dedicated quartz holder was filled with about from 5 to 10 mg of sample, and a weight of the sample at each humidity was measured and recorded in a continuous manner under the following conditions. Handling of the devices including data processing was based on the method and the process indicated in each device.
Device: VTI SA+ (manufactured by TA Instruments Inc.)
Drying temperature: 60° C.
Temperature rising speed: 1° C./min.
Equilibrium in drying: It is confirmed that no reduction of 0.01 wt % occurs in 5 minutes, in a range not exceeding 300 minutes.
Temperature for measurement: 25° C.
Equilibrium in humidification: It is confirmed that no increase of 0.01 wt % occurs in 5 minutes, in a range not exceeding 120 minutes.
Relative humidity program: Raised by 5% RH from 5% RH to 95% RH, and lowered by 5% RH from 95% RH to 5% RH.

[3] = Solid stability test (acceleration test), 40° C./75% RH; assay type: physicochemical
Description: as §1, with “monofumarate of Compound A, hemifumarate” for “monofumarate”, “40° C./75% RH (sealed condition and opened condition).” for “60° C.”
Storage condition: 40° C./75% RH (Sealed and Opened) (Opened refers to a condition where a glass container has the lid removed, and is covered with a KimWipe).
Points of measurement: 2 weeks and 4 weeks
as §2, §3, §4
Mass of analogous substance in the sample solution was measured by HPLC analysis. Handling of the devices including data processing was based on the method and the process indicated in each device. (Device: Shimadzu Corporation SIL-HTc/LC-20AB)
Column: InertSustein C18, 4.6×150 mm, 3 μm, manufactured by GL Sciences Inc.
MS detection: ESI positive
Column temperature: 40° C.
Column flow rate: 1.0 mL/min
Mobile phase: A; 10 mmol/L phosphate buffer (pH 6.0): Acetonitrile mixed solution (17:3), B; Acetonitrile
Amount of injection: 5 μL
In the Table, A, B and C refer to percentages of the total mass of analogous substance of less than 0.1%, 0.1% or more and less than 0.5%, and 0.5% or more, respectively. Incidentally, those marked with * were measured at 2 weeks' time and the others were measured at 4 weeks' time.

[4] = tested on: mouse collagen-induced arthritis model; assay: Mice collagen-induced arthritis model; assay type: in vivo, DBA/1 mice; details: 3 mg/kg, positive control, 17 days; FIG. 11
Description: The test was carried out in accordance with the method described in Non-Patent Literature (Brand D D, et al., Nat Protoc. 2007; 2, 1269-1275, Xu D. et al., JPET, 2012 April; 341 (1):90-103). Seven-week-old male/DBA/1 mice (CHARLES RIVER LABORATORIES JAPAN, INC.) were intracutaneously injected in the dorsum with 100 μL/body of an equal amount-mixed solution (emulsion) of 4 mg/mL of bovine type 2 collagen solution (Collagen Research Center) and Complete Freund's Adjuvant (DIFCO Inc.) (initial immunization). After 21 days therefrom, the mice were intracutaneously injected in the chine with 100 μL/body of an equal amount-mixed solution (emulsion) of 4 mg/mL of bovine type 2 collagen solution (Collagen Research Center) and Complete Freund's Adjuvant (DIFCO) to provide an additional immunization. The oral administration of 1 time per day was continued for 17 days setting the administration initiation day (day 0) as the eighth day from the additional immunization. Symptoms of arthritis in day 0, day 3, day 7, day 10, day 14 and day 17 were scored macroscopically (0: No change, 1: Swelling of a finger, 2: Swelling of two fingers or more, 3: Swelling of instep, 4: Swelling of all fingers extending wrist/ankle), and a total in four limbs was obtained as a point of individual body (maximum 16 points).

[5] = Blood concentration measurement test after oral administration; details: mice
Description: (§5) These administration solutions were orally administered to mice (Balb/cA) which had been bred under a feeding condition, at a dose of 10 mL per 1 kg body weight, with a sonde for oral administration. After the administration, the mice were returned to a cage for mice and conditions were checked. Inside the cage was provided with a condition where water and food were accessible ad libitum. After 0.25, 0.5, 1, 2, 4 and 6 hours from the administration, the mice were anesthetized with isoflurane, and 60 μL of blood was collected from orbital sinus with a capillary blood collection tube.
(§6) The collected blood was ice cooled, and blood plasma was separated by a centrifugal operation. The mice after the blood collection was returned to an animal breeding cage, and conditions after recovery from the anesthesia were checked. When the last blood collection was finished, the mice were euthanized by cervical dislocation, after a level check of isoflurane anesthesia.
(§7) AUC0-6 hr, Cmax and Tmax were calculated by linear-log trapezoid method with Phoenix WinNonlin (v6.3.0) which is a software manufactured by Pharsight Corporation, from a concentration of Compound A in each blood plasma measured by MRM method with LC-MS/MS.

[6] = Research of base addition salts of Compound A (solubility observation); assay type: physicochemical; details: water / organic solvent, in words
Description: A research was carried out on salt formation with sodium and magnesium, among inorganic bases. Specifically, Compound A was dissolved in an appropriate solvent, and each kind of the bases was added thereto (from 0.5 to 1.5 equivalent), and stirring was carried out for overnight, to thereby determine whether or not a salt formation occurred. As a result, in salt formation with sodium, decomposition remarkably proceeded, and therefore, the research was suspended. From the case of magnesium, hemi magnesium salt of Compound A was obtained (Reference Example 6).

[7] = in vivo; details: Balb/cA, mouse, po, 50 mg/kg
Description: as §5, §6, §7

[8] = 50 mg/kg in terms of Compound A, 0.5% HPMC suspension, plasma Compound A

SMILES | characteristic of channel hydrate [2] | weight change at a maximum [2] | Weight change ratio, Adsorption ([2]; relative humidity 5%) | Weight change ratio, Desorption ([2]; relative humidity 5%) | Weight change ratio, Adsorption ([2]; relative humidity 20%) | Weight change ratio, Desorption ([2]; relative humidity 20%) | Weight change ratio, Adsorption ([2]; relative humidity 40%) | Weight change ratio, Desorption ([2]; relative humidity 40%) | Weight change ratio, Adsorption ([2]; relative humidity 60%) | Weight change ratio, Desorption ([2]; relative humidity 60%) | Weight change ratio, Adsorption ([2]; relative humidity 80%) | Weight change ratio, Desorption ([2]; relative humidity 80%) | Weight change ratio, Adsorption ([2]; relative humidity 95%) | Weight change ratio, Desorption ([2]; relative humidity 95%) | total mass of analogous substance ([3]; Opened, 4 weeks) | total mass of analogous substance ([3]; Sealed, 4 weeks) | also measured
C=CC(=O)N1CCC[C@@H](n2nc(C(=O)Nc3nc4ccccc4o3)c3c(N)ncnc32)C1.C=CC(=O)N1CCC[C@@H](n2nc(C(=O)Nc3nc4ccccc4o3)c3c(N)ncnc32)C1.O=C(O)C(O)C(O)C(=O)O [hemitartrate of Compound A, (R)-1-(1-acryloylpiperidin-3-yl)-4-amino-N-(benzo[d]oxazol-2-yl)-1H-pyrazolo[3,4-d]pyrimidine-3-carboxamide.hemi-L-(+)-tartrate] | had the characteristic of channel hydrate | about 3.3% | 0.01% | −0.28% | 1.25% | 1.17% | 1.56% | 1.32% | 1.67% | 1.45% | 1.64% | 1.72% | 3.31% | 3.31% | B (0.1% or more and less than 0.5%) | B (0.1% or more and less than 0.5%) | total mass of analogous substance ([1]; 4 weeks): B (0.1% or more and less than 0.5%)
C=CC(=O)N1CCC[C@@H](n2nc(C(=O)Nc3nc4ccccc4o3)c3c(N)ncnc32)C1.O=P(O)(O)O [monophosphate of Compound A, (R)-1-(1-acryloylpiperidin-3-yl)-4-amino-N-(benzo[d]oxazol-2-yl)-1H-pyrazolo[3,4-d]pyrimidine-3-carboxamide.monophosphate] |  |  | 0.01% | 5.76% | 0.19% | 8.06% | 0.36% | 9.29% | 0.61% | 10.38% | 1.29% | 12.12% | 17.90% | 17.90% |  |  | total mass of analogous substance ([1]; 2 weeks (marked *)): B* (0.1% or more and less than 0.5%); crystal form after the moisture absorption/desorption test [2]: did not maintain the original crystal form; total mass of analogous substance ([3]; Opened, 2 weeks (marked *)): C* (0.5% or more); total mass of analogous substance ([3]; Sealed, 2 weeks (marked *)): C* (0.5% or more)
C[C@]12C=CC(=O)C=C1CC[C@@H]1[C@@H]2[C@@H](O)C[C@@]2(C)[C@H]1CC[C@]2(O)C(=O)CO [prednisolone, reference compound] |  |  |  |  |  |  |  |  |  |  |  |  |  |  |  |  | arthritis score [4]: only in a degree of maintaining the raised arthritis score
C=CC(=O)N1CCC[C@@H](n2nc(C(=O)Nc3nc4ccccc4o3)c3c(N)ncnc32)C1.C=CC(=O)N1CCC[C@@H](n2nc(C(=O)Nc3nc4ccccc4o3)c3c(N)ncnc32)C1.O=C(O)/C=C/C(=O)O [hemifumarate of Compound A, (R)-1-(1-acryloylpiperidin-3-yl)-4-amino-N-(benzo[d]oxazol-2-yl)-1H-pyrazolo[3,4-d]pyrimidine-3-carboxamide.hemifumarate] |  |  | 0.00% | 0.04% | 0.07% | 0.11% | 0.16% | 0.23% | 0.28% | 0.40% | 0.42% | 0.54% | 0.81% | 0.81% | A (less than 0.1%) | A (less than 0.1%) | mass change (increase) ([2]; relative humidity of 95%): less than 1%; solid stability (in words) ([3]; compared to hemitartrate or monophosphate): excellent solid stabilities; AUC0-6 hr relative to that of Compound A ([5]; 50 mg/kg): about two fold; Cmax relative to that of Compound A ([5]; 50 mg/kg): equivalent to that of Compound A; AUC0-6 hr [5, 8]: 10.32 µM·h; Cmax [5, 8]: 4.22 µM; Tmax [5, 8]: 30 min
C=CC(=O)N1CCC[C@@H](n2nc(C(=O)Nc3nc4ccccc4o3)c3c(N)ncnc32)C1.C=CC(=O)N1CCC[C@@H](n2nc(C(=O)Nc3nc4ccccc4o3)c3c(N)ncnc32)C1.[Mg] [hemi magnesium salt of Compound A, (R)-1-(1-acryloylpiperidin-3-yl)-4-amino-N-(benzo[d]oxazol-2-yl)-1H-pyrazolo[3,4-d]pyrimidine-3-carboxamide.hemi magnesium salt] |  |  |  |  |  |  |  |  |  |  |  |  |  |  |  |  | solubility [6]: low solubility to water and to an organic solvent
C=CC(=O)N1CCC[C@@H](n2nc(C(=O)Nc3nc4ccccc4o3)c3c(N)ncnc32)C1 [Compound A, (R)-1-(1-acryloylpiperidin-3-yl)-4-amino-N-(benzo[d]oxazol-2-yl)-1H-pyrazolo[3,4-d]pyrimidine-3-carboxamide] | had the characteristic of channel hydrate | about 4.4% | 0.42% | 0.67% | 3.08% | 3.20% | 3.60% | 3.65% | 3.88% | 3.88% | 4.09% | 4.11% | 4.39% | 4.39% |  |  | AUC(0-t) [7]: 5.45 µM·h; Cmax [7]: 3.98 µM; Tmax [7]: 15 min
